Data on four compounds can be found in patent US20250034216A1, “STEREOSELECTIVE COVALENT LIGANDS FOR ONCOGENIC AND IMMUNOLOGICAL PROTEINS” (The Scripps Research Institute, priority 2021, published 2025).

For one assay, the target named is T1, GPAT3_C306 (Homo sapiens, UniProt Q53EU6).
T1 construct: endogenous in cells; host or cells: 22Rv1
T1 sequence (Q53EU6 1-434): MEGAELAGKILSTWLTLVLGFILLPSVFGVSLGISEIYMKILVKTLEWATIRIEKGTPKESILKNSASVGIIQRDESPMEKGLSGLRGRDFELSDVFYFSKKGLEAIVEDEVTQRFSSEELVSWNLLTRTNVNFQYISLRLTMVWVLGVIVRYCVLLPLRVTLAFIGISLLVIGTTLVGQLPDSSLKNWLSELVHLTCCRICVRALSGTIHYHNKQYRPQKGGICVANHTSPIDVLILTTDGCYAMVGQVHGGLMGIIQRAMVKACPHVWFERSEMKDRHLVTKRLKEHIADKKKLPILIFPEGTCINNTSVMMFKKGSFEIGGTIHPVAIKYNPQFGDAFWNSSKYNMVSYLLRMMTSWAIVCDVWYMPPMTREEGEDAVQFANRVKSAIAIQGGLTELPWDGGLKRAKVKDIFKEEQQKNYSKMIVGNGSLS
Briefly: IA-DTB cysteine engagement. The class given is binding. To be noted: 22Rv1 cells, 20 μM probe, 1 h, relative to DMSO. The method in brief:
(§1)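 Probe-exposed cells were lysed, IA-DTB-labeled, trypsinized and streptavidin-enriched. Multiplexed TMT quantitation gave engagement ratios versus DMSO, with non-tryptic peptides excluded and intensities normalized to median summed signal.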

A further assay has as its target T2, VPS18_C522 (Homo sapiens, UniProt Q9P253).
T2 construct: endogenous in cells; host or cells: 22Rv1
T2 sequence (Q9P253 1-973): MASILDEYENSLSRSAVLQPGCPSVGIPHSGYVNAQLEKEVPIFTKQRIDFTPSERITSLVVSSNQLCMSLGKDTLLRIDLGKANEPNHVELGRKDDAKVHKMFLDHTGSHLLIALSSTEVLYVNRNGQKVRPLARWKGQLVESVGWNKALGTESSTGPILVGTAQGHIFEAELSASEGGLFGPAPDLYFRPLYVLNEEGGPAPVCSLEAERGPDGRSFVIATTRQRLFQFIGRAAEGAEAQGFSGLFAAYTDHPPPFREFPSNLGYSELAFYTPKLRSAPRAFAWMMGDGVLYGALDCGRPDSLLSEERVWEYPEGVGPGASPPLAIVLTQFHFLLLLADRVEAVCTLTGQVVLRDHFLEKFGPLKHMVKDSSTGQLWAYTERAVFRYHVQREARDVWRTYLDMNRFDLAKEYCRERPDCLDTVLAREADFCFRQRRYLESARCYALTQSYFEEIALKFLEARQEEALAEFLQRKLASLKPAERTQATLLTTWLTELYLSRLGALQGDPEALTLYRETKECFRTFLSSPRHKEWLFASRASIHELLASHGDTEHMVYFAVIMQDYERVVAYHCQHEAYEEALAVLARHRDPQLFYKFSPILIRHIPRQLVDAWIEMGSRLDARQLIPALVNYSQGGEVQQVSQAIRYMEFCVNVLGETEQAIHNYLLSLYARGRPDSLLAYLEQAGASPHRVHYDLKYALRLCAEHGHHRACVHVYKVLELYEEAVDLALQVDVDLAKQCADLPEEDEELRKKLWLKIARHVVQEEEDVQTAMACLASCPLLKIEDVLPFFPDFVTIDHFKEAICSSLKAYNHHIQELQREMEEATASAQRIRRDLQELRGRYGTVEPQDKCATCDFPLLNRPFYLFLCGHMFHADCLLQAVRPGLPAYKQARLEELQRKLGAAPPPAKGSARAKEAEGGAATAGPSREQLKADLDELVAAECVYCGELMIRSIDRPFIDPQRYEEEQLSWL
The experiment in a line: IA-DTB cysteine engagement. The class given is binding. To be noted: 22Rv1 cells, 20 μM probe, 1 h, relative to DMSO. The method in brief:
as §1

With `C=CC(=O)N1C[C@H](c2ccc(Br)cc2)[C@@H]1C(=O)Nc1cccc2cccnc12` [MY-1B, (2R,3S)-1-acryloyl-3-(4-bromophenyl)-N-(quinolin-8-yl)azetidine-2-carboxamide], the “% engagement GPAT3_C306” value on GPAT3_C306 was 81.5%. Further, the “% engagement VPS18_C522” value on VPS18_C522 amounted to 45%.

Regarding `C=CC(=O)N1C[C@H](c2ccc(Br)cc2)[C@H]1C(=O)Nc1cccc2cccnc12` [MY-3B, (2S,3S)-1-acryloyl-3-(4-bromophenyl)-N-(quinolin-8-yl)azetidine-2-carboxamide], at GPAT3_C306, the “% engagement GPAT3_C306” value worked out at 100%. For the same compound, the “% engagement VPS18_C522” value at VPS18_C522 was 21%.

`C=CC(=O)N1C[C@H](c2ccc(Br)cc2)[C@H]1C(=O)Nc1cccc2cccnc12` [MY-3A, (2S,3S)-1-acryloyl-3-(4-bromophenyl)-N-(quinolin-8-yl)azetidine-2-carboxamide]: the “% engagement GPAT3_C306” value on GPAT3_C306 was determined as 57%. Further, the “% engagement VPS18_C522” value at VPS18_C522 is 88%.

For `C=CC(=O)N1C[C@@H](c2ccc(Br)cc2)[C@H]1C(=O)Nc1cccc2cccnc12` [MY-1A, (2S,3R)-1-acryloyl-3-(4-bromophenyl)-N-(quinolin-8-yl)azetidine-2-carboxamide], the “% engagement GPAT3_C306” value on GPAT3_C306 was 75.75%. The “% engagement VPS18_C522” value on VPS18_C522 is on record as −22%.
